# Experimental data as given in ChEMBL document CHEMBL1201862, “PubChem BioAssay data set” (2004).
# The source made the active and inactive calls.
# Columns and labels:
# [1] = biological target: Intestinal-type alkaline phosphatase (Homo sapiens, UniProt P09923); assay: inhibition of human intestinal alkaline phosphatase – biochemical, dose response (AID 488876); type: functional
# [2] = biological target: T1, Alkaline phosphatase, tissue-nonspecific isozyme (Homo sapiens, UniProt P05186); assay: TNAP enzyme inhibition by screening hits, dose response, selectivity assay for mouse IAP inhibitor project, biochemical, human TNAP, uHTS hits (AID 488906); type: functional
# T1 sequence (P05186 whole entry): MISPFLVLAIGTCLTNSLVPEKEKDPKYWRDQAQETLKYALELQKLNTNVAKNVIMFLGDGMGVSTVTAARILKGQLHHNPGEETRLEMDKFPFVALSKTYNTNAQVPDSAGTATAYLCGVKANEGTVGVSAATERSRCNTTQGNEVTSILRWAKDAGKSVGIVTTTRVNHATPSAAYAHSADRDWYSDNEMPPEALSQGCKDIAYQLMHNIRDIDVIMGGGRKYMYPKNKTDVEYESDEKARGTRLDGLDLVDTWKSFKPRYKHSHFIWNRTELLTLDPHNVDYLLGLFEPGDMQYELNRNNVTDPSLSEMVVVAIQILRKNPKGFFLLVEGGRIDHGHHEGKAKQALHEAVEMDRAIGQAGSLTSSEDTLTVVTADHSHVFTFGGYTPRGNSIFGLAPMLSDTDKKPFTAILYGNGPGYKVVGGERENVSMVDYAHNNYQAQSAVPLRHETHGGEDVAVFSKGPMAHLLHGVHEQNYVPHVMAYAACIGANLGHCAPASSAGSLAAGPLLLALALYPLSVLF
# [3] = biological target: Intestinal-type alkaline phosphatase (Mus musculus, UniProt P24822); assay: PubChem AID 488785; type: functional
# [4] = biological target: Lysine-specific demethylase 4C (Homo sapiens, UniProt Q9H3R0); assay: GASC-1 (JMJD2C) histone demethylase inhibitors, dose response, biochemical, DELFIA europium, cherry-picked samples (AID 488835); type: functional
# [5] = biological target: T2, RNA-binding protein pos-1 (Caenorhabditis elegans, UniProt G5EF15); assay: inhibitors of POS-1/mex-3 RNA binding, dose response, biochemical, fluorescence polarization (AID 1964);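 further: purified POS-1 fused to maltose binding protein made in E. coli; potency of compounds blocking POS-1 binding to fluorescent RNA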
# T2 sequence (G5EF15 whole entry): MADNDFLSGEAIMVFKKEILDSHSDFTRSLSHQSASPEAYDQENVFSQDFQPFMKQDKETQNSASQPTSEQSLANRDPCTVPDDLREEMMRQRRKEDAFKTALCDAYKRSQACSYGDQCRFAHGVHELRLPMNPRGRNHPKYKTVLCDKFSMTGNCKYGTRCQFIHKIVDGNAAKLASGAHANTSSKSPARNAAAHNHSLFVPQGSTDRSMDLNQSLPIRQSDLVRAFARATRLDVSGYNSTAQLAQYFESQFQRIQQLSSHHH
# [6] = growth suppression of beta-catenin-knockout colon cells, dose response, cell-based, HCT116, human colon tumor (AID 1045); type: functional;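 further: HCT116 colon tumor cells with beta catenin knocked out; cells exposed to compound for 60 hours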
# [7] = biological target: T3, Runt-related transcription factor 1/Core-binding factor subunit beta (Homo sapiens, UniProt Q01196+Q13951); assay: inhibitors of RUNX1 Runt–CBFb-SMMHC binding, biochemical, TR-FRET (AID 1438); type: protein assay
# T3 sequence (Q01196 whole entry): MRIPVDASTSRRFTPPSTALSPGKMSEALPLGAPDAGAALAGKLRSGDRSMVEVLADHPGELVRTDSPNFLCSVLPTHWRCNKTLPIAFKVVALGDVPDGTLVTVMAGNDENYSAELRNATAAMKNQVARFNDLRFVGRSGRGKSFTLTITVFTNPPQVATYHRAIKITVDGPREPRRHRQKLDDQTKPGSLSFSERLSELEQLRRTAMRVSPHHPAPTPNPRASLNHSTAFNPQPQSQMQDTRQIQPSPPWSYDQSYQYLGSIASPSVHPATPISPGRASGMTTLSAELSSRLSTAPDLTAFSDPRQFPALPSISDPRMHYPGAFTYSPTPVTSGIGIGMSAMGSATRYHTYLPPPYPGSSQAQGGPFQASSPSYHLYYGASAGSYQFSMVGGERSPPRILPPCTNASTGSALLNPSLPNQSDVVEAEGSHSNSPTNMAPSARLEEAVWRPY
# T3 sequence (Q13951 whole entry): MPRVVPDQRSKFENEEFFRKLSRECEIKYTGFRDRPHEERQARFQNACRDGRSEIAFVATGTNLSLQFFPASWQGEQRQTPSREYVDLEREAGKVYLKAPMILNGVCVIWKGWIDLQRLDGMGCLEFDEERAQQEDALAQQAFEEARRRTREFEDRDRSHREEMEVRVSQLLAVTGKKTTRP
# Aspartyl aminopeptidase = biological target: T4, Aspartyl aminopeptidase (Plasmodium falciparum 3D7, UniProt Q8I2J3)
# T4 sequence (Q8I2J3 whole entry): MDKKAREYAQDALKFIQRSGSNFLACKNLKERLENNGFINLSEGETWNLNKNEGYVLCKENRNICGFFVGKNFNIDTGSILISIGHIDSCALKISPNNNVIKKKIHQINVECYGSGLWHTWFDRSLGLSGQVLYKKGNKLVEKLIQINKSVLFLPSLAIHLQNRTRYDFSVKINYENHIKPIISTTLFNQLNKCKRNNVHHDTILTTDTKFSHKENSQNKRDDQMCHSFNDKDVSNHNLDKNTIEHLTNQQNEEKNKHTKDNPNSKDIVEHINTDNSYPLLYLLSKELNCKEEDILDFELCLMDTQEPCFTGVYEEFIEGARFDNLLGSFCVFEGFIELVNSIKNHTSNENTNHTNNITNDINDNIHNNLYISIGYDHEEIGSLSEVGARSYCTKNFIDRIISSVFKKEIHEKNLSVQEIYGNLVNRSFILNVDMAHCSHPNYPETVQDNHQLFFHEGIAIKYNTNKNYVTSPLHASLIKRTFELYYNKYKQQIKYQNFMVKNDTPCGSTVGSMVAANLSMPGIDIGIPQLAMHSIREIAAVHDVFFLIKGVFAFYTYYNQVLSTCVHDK
# [8] = biological target: T5, Zinc finger protein mex-5 (Caenorhabditis elegans, UniProt Q9XUB2); assay: MEX-5/TCR-2 RNA interaction inhibitors, dose response, biochemical, C. elegans, fluorescence polarization (AID 1960)
# T5 sequence (Q9XUB2 whole entry): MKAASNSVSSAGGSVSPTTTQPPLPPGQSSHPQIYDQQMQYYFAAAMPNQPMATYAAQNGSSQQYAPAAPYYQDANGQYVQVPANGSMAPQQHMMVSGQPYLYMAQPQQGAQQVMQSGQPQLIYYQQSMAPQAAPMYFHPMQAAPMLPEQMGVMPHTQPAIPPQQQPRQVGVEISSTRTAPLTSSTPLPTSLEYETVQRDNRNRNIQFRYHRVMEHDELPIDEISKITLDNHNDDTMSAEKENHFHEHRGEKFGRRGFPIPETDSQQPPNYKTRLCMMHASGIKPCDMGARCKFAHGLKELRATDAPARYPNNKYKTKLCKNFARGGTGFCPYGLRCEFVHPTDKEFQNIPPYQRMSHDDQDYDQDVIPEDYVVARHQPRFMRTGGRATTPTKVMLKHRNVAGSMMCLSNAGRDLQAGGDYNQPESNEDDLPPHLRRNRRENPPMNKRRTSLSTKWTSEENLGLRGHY
# [9] = growth suppression of PTEN-null colon cells, dose response, cell-based, HCT116 PTEN knockout (AID 1047); type: functional;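 further: HCT116 colon tumor cells with PTEN knocked out; cells exposed to compound for 60 hours before readout; potency for loss of cell viability measured by luminescence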
# Procathepsin L = Procathepsin L (Homo sapiens, UniProt P07711)
# Chain of Procathepsin L (P07711 whole entry): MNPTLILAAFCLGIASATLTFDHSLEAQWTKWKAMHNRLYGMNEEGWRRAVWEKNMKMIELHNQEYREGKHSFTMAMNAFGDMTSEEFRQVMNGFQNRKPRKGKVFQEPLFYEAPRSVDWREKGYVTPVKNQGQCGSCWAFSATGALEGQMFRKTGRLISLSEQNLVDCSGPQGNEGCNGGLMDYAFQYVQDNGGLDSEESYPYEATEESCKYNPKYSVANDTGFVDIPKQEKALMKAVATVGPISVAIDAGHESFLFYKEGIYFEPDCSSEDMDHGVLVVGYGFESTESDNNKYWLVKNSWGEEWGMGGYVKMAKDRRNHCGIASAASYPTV
# Large T antigen = Large T antigen (Simian virus 40, UniProt P03070); type: functional, Betapolyomavirus macacae;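 further: Confirmatory-stage PubChem screen for compounds that inhibit SV40 T antigen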
# Chain of Large T antigen (P03070 whole entry): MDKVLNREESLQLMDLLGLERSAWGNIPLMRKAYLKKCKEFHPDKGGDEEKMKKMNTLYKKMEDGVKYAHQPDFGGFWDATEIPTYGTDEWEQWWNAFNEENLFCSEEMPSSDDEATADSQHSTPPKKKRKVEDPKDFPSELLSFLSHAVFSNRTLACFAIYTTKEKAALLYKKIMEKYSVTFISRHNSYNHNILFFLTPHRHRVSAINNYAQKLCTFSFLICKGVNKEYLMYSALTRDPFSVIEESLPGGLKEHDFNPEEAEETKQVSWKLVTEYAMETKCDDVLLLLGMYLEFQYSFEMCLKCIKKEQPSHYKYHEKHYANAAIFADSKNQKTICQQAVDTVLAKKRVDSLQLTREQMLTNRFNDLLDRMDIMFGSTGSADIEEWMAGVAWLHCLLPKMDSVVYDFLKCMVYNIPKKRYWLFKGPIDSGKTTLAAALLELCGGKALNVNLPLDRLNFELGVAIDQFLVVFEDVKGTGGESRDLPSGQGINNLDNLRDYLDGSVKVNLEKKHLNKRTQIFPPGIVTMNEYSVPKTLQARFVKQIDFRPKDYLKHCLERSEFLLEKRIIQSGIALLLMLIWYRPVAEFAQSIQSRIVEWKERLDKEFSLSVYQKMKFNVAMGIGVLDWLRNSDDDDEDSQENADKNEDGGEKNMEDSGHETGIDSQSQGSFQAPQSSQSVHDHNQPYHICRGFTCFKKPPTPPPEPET
# [10] = biological target: FAD-linked sulfhydryl oxidase ALR (Homo sapiens, UniProt P55789); assay: inhibitors of human ALR sulfhydryl oxidase, dose response, biochemical, H2O2 detection, luminescence, cherry-pick (AID 493248)
# Chain of FAD-linked sulfhydryl oxidase ALR (P55789 whole entry, the tested form may be a part): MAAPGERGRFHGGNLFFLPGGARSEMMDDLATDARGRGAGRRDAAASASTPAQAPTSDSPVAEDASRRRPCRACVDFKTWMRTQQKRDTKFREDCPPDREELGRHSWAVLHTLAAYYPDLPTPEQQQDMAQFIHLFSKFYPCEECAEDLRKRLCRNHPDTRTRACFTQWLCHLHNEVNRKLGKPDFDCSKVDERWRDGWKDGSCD
# [11] = biological target: T3, Runt-related transcription factor 1/Core-binding factor subunit beta; assay: inhibitors of RUNX1 Runt–CBFb-SMMHC binding, primary screen, biochemical, FRET, Cerulean-Runt, Venus-CBFb-SMMHC, uHTS (AID 1434); type: protein assay;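 further: partner is the CBFb-SMMHC leukemia fusion protein rather than wild-type CBFb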
# [12] = control 3'UTR Renilla luciferase suppression, dose response, counter-screen for Shn3 inhibitor project, cell-based, Clone20-Shn3RL, cherry-picked (AID 624133); type: functional
# [13] = insulin promoter down-regulators in MIN6 cells, imaging, high-content screening, mouse beta cells (AID 1628); type: functional
# [14] = HepG2 cell cytotoxicity, dose response, cytotoxicity control for Shn3 inhibitor project, CellTiter-Glo, cherry-picked (AID 624134); type: functional, cell-based
# Streptokinase A = biological target: T6, Streptokinase A (Streptococcus pyogenes serotype M1, UniProt P10520); assay: S. pyogenes streptokinase expression inhibitors, potency, dose response, plasminogen activation absorbance, OD405 (AID 1914); type: functional, Streptococcus pyogenes M1 GAS;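 further: secreted streptokinase activity via plasminogen activation per viability signal from cell pellet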
# T6 sequence (P10520 whole entry): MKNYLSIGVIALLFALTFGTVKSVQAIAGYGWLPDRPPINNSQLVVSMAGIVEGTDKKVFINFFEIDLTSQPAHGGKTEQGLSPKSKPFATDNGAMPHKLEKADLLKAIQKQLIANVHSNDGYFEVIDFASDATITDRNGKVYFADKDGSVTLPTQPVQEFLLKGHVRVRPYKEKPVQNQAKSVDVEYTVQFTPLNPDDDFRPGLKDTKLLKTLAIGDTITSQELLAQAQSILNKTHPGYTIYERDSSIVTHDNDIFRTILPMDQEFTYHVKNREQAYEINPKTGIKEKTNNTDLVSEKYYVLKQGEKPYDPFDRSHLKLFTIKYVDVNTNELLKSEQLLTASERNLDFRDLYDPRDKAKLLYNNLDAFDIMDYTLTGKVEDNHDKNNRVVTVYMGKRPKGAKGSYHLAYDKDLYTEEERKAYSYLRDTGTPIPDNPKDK
# [15] = test system: Streptococcus sp. 'group A'; assay: growth inhibition of control SK(-) GAS strain, dose response, counter-screen for streptokinase expression inhibitor project, luminescence, kanamycin, BacTiterGlo, confirmation (AID 1900); type: functional, organism-based
# [16] = Shn3 3'UTR reporter inhibitors, dose response, cell-based, Clone20 osteoblasts, firefly luciferase, cherry-picked (AID 624132); type: functional;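 further: firefly luciferase luminescence from reporter carrying the Shn3 3'UTR in osteoblasts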
# Streptococcus = assay: Group A Streptococcus viability loss, dose response, counter-screen for streptokinase expression inhibitor project, luminescence, BacTiterGlo (AID 1915); type: functional, organism-based;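 further: potency for reduction of bacterial viability or growth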
# H9c2 = assay: cells; type: functional, cell-based; details: Rattus norvegicus, H9c2, Myocardium;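 further: confirmatory concentration-response retest of ultra-high-throughput screening hits for modulation of myocardial damage; cell death induced by hydrogen peroxide oxidative stress; compound pretreatment for 60 min then peroxide exposure for 2 h; potency is for protecting the cells against peroxide damage rather than for killing them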
# cells [17] = type: functional, cell-based
# INS1 = assay: beta cell apoptosis inhibitors, cytokine rescue, dose response, luminescence, retest (AID 449756); type: functional, cell-based; details: Rattus norvegicus, INS1;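 further: cell death triggered by IL-1 beta plus TNF-alpha plus IFN-gamma mixture; protective hits raise ATP signal compared with cytokine alone wells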
# cells [18] = type: functional, cell-based; remark: listed apart in the source
# [19] = cytotoxicity in MIN6 insulinoma cells, dose response, cytotoxicity control, cell-based, mouse insulinoma (AID 2122); type: functional;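 further: confirmatory high-throughput counterscreen run to flag cytotoxic compounds; mouse MIN-6 beta cells carrying an insulin promoter eGFP reporter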
# HEK293 [20] = assay: cells; details: Homo sapiens
# HEK293 [21] = assay: cells; details: Homo sapiens; remark: listed apart in the source
# [22] = Luminescence Cell-Based Dose Retest to Confirm Inhibitors of Cancer Stem Cells. [Related pubchem assays (depositor defined):AID2717, AID2721]; type: functional; details: Homo sapiens
# SUMO E1/E2 = SUMO E1/E2 (Homo sapiens, UniProt P63279+Q9UBE0+Q9UBT2); assay: SAR analysis of SUMOylation using HTRF in an in-Vitro dose response assay. [Related pubchem assays (depositor defined):AID2006, AID2011, AID2018, AID2069, AID2658]; type: functional
# [23] = biological target: Voltage-dependent T-type calcium channel subunit alpha-1H (Homo sapiens, UniProt O95180); type: functional;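 further: channel activity triggered by adding a high calcium stimulation buffer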
# Chain of Voltage-dependent T-type calcium channel subunit alpha-1H (O95180 whole entry): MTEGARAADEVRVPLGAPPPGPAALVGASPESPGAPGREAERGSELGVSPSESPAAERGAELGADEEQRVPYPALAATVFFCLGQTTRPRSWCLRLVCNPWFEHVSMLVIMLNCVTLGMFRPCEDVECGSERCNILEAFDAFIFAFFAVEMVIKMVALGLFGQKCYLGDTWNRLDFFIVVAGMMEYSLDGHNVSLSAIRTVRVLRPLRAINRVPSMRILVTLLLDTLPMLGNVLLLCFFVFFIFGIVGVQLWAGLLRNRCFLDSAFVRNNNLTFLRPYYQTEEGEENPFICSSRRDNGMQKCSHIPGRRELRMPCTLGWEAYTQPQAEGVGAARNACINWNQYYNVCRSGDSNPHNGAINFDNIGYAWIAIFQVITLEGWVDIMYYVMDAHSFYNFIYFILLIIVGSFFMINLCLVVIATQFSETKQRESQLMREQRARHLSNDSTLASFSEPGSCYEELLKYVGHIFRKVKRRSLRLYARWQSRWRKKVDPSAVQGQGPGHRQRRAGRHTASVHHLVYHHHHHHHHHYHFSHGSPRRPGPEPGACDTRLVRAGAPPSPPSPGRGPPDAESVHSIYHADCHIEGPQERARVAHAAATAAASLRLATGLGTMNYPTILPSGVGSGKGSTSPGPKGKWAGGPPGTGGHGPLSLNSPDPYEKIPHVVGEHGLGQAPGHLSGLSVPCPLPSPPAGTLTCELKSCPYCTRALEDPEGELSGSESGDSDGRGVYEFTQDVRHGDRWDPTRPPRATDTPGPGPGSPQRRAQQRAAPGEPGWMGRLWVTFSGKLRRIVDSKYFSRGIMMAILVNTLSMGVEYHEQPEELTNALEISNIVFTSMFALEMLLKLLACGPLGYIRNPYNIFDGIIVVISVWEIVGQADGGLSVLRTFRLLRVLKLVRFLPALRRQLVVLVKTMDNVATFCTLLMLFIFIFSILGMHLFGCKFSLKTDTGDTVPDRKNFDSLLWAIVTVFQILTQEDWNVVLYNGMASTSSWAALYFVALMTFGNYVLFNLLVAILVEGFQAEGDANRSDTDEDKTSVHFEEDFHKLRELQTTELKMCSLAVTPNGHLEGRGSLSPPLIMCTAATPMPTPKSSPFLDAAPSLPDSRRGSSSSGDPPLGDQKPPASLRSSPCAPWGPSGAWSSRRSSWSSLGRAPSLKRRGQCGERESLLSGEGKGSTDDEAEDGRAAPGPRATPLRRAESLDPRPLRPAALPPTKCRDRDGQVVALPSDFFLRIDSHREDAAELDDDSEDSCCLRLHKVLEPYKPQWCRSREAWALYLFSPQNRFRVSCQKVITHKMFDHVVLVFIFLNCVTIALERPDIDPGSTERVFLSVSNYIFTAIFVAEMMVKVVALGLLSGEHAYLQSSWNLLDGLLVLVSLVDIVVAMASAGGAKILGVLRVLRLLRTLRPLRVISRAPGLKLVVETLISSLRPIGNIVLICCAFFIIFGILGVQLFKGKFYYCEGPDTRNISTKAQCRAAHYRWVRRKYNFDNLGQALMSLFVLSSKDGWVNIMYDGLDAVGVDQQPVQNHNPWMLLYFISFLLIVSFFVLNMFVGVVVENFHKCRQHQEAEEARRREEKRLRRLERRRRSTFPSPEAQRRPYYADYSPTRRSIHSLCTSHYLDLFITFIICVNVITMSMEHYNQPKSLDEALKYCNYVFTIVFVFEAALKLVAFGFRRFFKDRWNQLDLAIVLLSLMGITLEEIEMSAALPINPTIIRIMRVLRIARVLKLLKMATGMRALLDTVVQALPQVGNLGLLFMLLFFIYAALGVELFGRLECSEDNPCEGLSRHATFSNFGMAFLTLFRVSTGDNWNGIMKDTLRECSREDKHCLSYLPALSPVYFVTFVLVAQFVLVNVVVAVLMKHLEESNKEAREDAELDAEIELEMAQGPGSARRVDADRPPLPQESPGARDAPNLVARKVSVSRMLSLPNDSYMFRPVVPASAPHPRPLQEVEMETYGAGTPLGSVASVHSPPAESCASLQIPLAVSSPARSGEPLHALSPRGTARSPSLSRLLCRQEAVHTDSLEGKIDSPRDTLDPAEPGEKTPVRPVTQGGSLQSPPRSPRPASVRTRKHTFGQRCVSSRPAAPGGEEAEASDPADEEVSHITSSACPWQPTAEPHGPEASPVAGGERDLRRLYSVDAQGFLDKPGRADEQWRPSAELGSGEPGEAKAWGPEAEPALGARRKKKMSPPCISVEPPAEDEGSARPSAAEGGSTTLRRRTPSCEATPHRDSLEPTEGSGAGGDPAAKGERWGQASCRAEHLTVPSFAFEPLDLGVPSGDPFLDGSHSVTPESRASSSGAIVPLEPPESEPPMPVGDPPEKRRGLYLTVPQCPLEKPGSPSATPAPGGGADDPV
# Protein Wnt-3a = Protein Wnt-3a (Mus musculus, UniProt P27467); assay: Wnt3a-driven reporter signaling inhibition, dose response, selectivity assay for Gli-SUFU antagonist project, Wnt-LIGHT cells, luminescence (AID 651570); type: functional; details: read-out: IC50_Mean;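 further: Wnt-LIGHT reporter cells stimulated with conditioned medium from Wnt3a-producing cells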
# Chain of Protein Wnt-3a (P27467 whole entry): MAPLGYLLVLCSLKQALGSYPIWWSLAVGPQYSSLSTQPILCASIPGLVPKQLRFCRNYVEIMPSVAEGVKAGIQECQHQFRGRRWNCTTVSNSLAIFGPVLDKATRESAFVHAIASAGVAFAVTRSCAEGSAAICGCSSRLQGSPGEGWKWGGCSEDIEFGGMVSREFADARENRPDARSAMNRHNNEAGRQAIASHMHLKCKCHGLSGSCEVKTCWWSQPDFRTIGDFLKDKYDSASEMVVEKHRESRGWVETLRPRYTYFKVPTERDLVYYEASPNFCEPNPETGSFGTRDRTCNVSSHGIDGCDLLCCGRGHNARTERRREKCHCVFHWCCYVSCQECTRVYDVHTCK
# [24] = biological target: T7, Ubiquitin-conjugating enzyme E2 N (Homo sapiens, UniProt P61088); type: functional
# T7 sequence (P61088 whole entry): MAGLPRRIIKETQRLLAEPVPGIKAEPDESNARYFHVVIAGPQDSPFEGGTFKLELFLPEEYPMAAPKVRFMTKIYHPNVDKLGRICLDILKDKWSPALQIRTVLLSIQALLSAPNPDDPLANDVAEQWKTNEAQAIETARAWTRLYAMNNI
# Bcl-2-related protein A1 = biological target: T8, Bcl-2-related protein A1 (Mus musculus, UniProt Q07440); type: functional;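 further: confirmatory dose–response counterscreen on Bfl-1, used to check hits from a UBC13 polyubiquitin inhibitor campaign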
# T8 sequence (Q07440 whole entry): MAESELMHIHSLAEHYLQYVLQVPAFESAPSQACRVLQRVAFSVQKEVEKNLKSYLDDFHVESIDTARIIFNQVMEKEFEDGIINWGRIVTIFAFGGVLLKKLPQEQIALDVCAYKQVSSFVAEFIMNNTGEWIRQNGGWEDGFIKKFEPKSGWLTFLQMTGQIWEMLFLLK
# [25] = biological target: T7, Ubiquitin-conjugating enzyme E2 N; type: functional; remark: listed apart in the source
smiles,measurement,setting,value
Cc1ccc(C)c(NC(=O)CCNS(=O)(=O)c2ccc3[nH]c(=O)oc3c2)c1,IC50,[1],> 100 µM (inactive)
same,IC50,[2],22.6 µM (active)
same,IC50,[3],5.21 µM (active)
COc1ccc(NC(=O)CNC(=O)c2nn(-c3ccc(OC)c(Cl)c3)c(=O)c3ccccc23)c(OC)c1,AC50,[4],21.5 µM (active)
Oc1ccc(O)c(-c2cnns2)c1,EC50,[5],> 300 µM (not active)
same,EC50,[6],365 µM (active)
same,IC50,[7],20.5 µM (active)
same,IC50,Aspartyl aminopeptidase,1.89 µM (active)
same,EC50,[8],6.91 µM (active)
same,EC50,[9],47.1 µM (active)
same,IC50,Procathepsin L,> 59.6 µM (not active)
same,IC50,Large T antigen,10 µM (active)
same,AC50,[10],4.57 µM (active)
same,IC50,[11],33.8 µM (active)
O=C(Nc1nc(-c2ccccn2)cs1)c1cccc(-n2cnnn2)c1,AC50,[12],2.43 µM (active)
same,IC50,[13],2.43 µM (active)
same,AC50,[14],8.31 µM (active)
same,EC50,Streptokinase A,> 150 µM (not active)
same,EC50,[15],24.7 µM (active)
same,AC50,[16],2.58 µM (active)
same,EC50,Streptococcus,> 150 µM (not active)
same,IC50,H9c2,> 79 µM (inactive)
same,EC50,cells [17],> 350 µM (not active)
same,AC50,INS1,1.56 µM (active)
same,EC50,cells [18],> 350 µM (not active)
same,IC50,[19],2.54 µM (active)
O=C(NCCC1=CCCCC1)c1coc(=O)c(Br)c1,EC50,HEK293 [20],> 59.6 µM (inactive)
same,EC50,[6],28.6 µM (active)
same,EC50,HEK293 [21],> 59.6 µM (inactive)
same,EC50,[9],28.9 µM (active)
same,AC50,[22],6.05 µM (active)
O=c1c2ccccc2nc(COc2ccccc2)n1N=Cc1cc([N+](=O)[O-])ccc1O,IC50,SUMO E1/E2,43.7 µM (active)
CCCOc1ccccc1N=C(NC(=O)COc1ccc(OC)cc1)Nc1nc(C)cc(C)n1,AC50,[12],6.58 µM (active)
same,IC50,[13],2.3 µM (active)
same,AC50,[14],49.3 µM (active)
same,AC50,[16],3.24 µM (active)
same,EC50,[23],8.53 µM (active)
same,IC50,[19],3.16 µM (active)
same,IC50,Protein Wnt-3a,6.39 µM (active)
COc1ccccc1NC(=O)CN1CCC(n2c(C)nc3cc(F)ccc32)CC1,IC50,[24],1.78 µM (active)
same,EC50,HEK293 [20],> 59.6 µM (inactive)
same,EC50,HEK293 [21],> 59.6 µM (inactive)
same,IC50,Bcl-2-related protein A1,> 20 µM (inactive)
same,IC50,[25],1.53 µM (active)
